{
  "source": "patent US20190022132A1",
  "about": "“TREATMENT OR PREVENTION OF PULMONARY CONDITIONS WITH CARBON MONOXIDE” (PROTERRIS, INC., priority 2013, published 2019)",
  "origin": "cited, not measured here",
  "key": {"[1]": {"conditions": "CO alveolar concentration of 25 ppm"}, "brain": {"system": "brain", "conditions": "inhalation, rats"}, "[2]": {"system": "models of acute lung injury", "conditions": "early timepoints; effect not sustained beyond the first 6 hours"}, "[3]": {"conditions": "Phase I and Phase II human trials"}},
  "data": [
    {"smiles": "[C-]#[O+]", "note": "[CO, carbon monoxide]", "values": [
      {"measurement": "time to reach an equilibration point", "setting": "[1]", "value": "about 20 hours"},
      {"measurement": "oxidative damage in the brain", "setting": "brain", "value": "can cause oxidative damage in the brain"},
      {"measurement": "airway neutrophil count and lung injury", "setting": "[2]", "value": "decrease airway neutrophil count and lung injury at early timepoints"},
      {"measurement": "tolerability", "setting": "[3]", "value": "well tolerated"}
    ]}
  ]
}
